From patent US20090208934A1, “PECAM-1 GENOTYPE” (The Johns Hopkins University, priority 2005, published 2009)

Legend:
Ren (+/WT) cells = assay: Ren cell aggregation assay; format: cell-based; settings: wild type PECAM-1 transfected, agent added to cell suspension at two concentrations, 90 rpm, 37° C., 20 minutes, FIG. 4
Method: (§1) FIG. 4 depicts the results of a Ren cell aggregation assay. About 2×10^6 of Ren cells, Ren (−), Ren (+/WT) and Ren (+/PM), were seeded in a T75 flask and cultured for 48 hours for aggregation assays. The monodispersed Ren cells suspension (10^6 cells/ml in HBSS with 1 mM CaCl2) were prepared. Next, two concentrations of anti-PECAM-1 antibody (JHS-7) (A), and human rcPECAM-1 (B) were added in. Then, cells were transfected to wells in a 24-well tissue culture tray (1 mL per well) and rotated on a gyratory shaker (at 90 rpm) at 37° C. for 20 minutes. Data are expressed as the percent of total cells present in aggregates. *P<0.05, **P<0.01.
(§2) A variation of aggregation assay of Takeichi (59) was adopted. Briefly, confluent culture of Ren cells were detached and dispersed and resuspended to about 10^6 cells/ml in HBSS (37° C.) with 1 mM CaCl2. One ml cell aliquots were transfected to wells in a 24-well plate and rotated on a gyratory shaker (At 90 rpm) at 37° C. for 20 minutes, then stopped by addition of glutaraldehyde to a final concentration of 2%. Aggregation was quantified by examining representative aliquot of equal volumes from each sample on a hemacytometer grid under phase contrast optics. Cells remaining as single cells or present in aggregates (≧3 cells clots) were counted in nine squares. Data are expressed as the percent of total cells present in aggregates.

Ren (+/PM) cells = assay: Ren cell aggregation assay; format: cell-based; settings: 125Val plus 563Asn PECAM-1 transfected, agent added to cell suspension at two concentrations, 90 rpm, 37° C., 20 minutes, FIG. 4
Method: as §1, §2

recombinant human PECAM-1 protein: Soluble recombinant PECAM-1 (95˜98 KDa, containing only the extracellular domains), purchased from R&D Systems (Cat# ADP6C)
effect on Ren cell aggregation (percent of total cells present in aggregates) (Ren (+/WT) cells): attenuated the aggregation
effect on Ren cell aggregation (percent of total cells present in aggregates) (Ren (+/PM) cells): attenuated the aggregation
